This note sets out measurements from US20240294548A1, “TRICYCLIC SULTAMS AND SULFAMIDES AS ANTITUMOR AGENTS” (PELOTON THERAPEUTICS INC., priority 2021, published 2024).

In assay [1] the test system is HCT116 human colorectal carcinoma cells. Kind of assay: CellTiter-Glo assay (cell viability). The format is cell-based. As to conditions: HCT-116, 72 h, HCT116 cells, 3 days, CellTiter-Glo luminescence, read-out: CTG IC50. The procedure, abridged: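 Cells (3,000/well) in DMEM/10% FBS were treated next day with 3-fold serial dilutions (final top […]) in triplicate for 3 days. Viability read by CellTiter-Glo luminescence; IC50 derived from dose-response.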

Assay [2] concerns the target T1, DCAF15 (DDA1-DDB1ΔB-DCAF15Δpro) (Homo sapiens, UniProt Q66K64, DEL276-383).
T1 construct: made in house; host or cells: Sf9 (Bac-to-Bac baculovirus)
Kind of assay: DCAF15 displacement assay (displacement FRET, probe PT7795). As to conditions: displacement of PT7795 (300 nM), compound 0.01 to 100 μM, 18 hours incubation; read-out: DCAF15 displacement IC50. The format is binding.

Assay [3] addresses T2, DCAF15 RBM39 ternary complex (Homo sapiens, UniProt Q14498+Q66K64, DEL276-383).
T2 construct: Amino acids 150 to 331 of RBM39 were cloned into pGEX4T3; GST (from the pGEX4T3 vector, own knowledge) followed by a TEV cleavage site (N); made in house; host or cells: Sf9 baculovirus (DDB1ΔB/DCAF15); E. coli (RBM39 R1R2)
Kind of assay: DCAF15 RBM39 complex formation assay (FRET). The format is biochemical. As to conditions: FRET ratio, 20 nM DDB1DB/DCAF15, 50 nM RBM39 R1R2, overnight at 4° C.; read-out: DCAF15 RBM39 ternary complex EC50. The method in brief:
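TR-FRET between Eu-anti-His and APC-anti-FLAG, using 20 nM His-DCAF15/DDB1DB (Sf9) with 50 nM RBM39 RRM1–RRM2 (E. coli) in HEPES pH 7.5 buffer. Compounds run as a 14-point 3-fold series from 1 μM, incubated overnight at 4 °C.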

T2 sequence (Q66K64 with tags, fused parts or gaps DEL276-383): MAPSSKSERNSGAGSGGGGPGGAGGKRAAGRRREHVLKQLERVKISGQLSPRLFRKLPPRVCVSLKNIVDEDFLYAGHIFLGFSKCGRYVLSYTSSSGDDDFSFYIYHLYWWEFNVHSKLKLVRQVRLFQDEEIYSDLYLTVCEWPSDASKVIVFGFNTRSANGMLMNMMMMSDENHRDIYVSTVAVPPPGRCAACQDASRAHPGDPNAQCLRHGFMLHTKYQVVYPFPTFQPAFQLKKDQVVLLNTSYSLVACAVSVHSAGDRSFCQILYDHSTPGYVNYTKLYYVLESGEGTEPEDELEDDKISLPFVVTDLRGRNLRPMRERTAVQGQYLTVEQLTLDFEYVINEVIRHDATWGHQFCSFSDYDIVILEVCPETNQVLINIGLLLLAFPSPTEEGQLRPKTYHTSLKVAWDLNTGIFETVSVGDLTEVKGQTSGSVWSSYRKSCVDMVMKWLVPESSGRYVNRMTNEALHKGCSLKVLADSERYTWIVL
T2 sequence (Q14498 150-331, stated change not applied): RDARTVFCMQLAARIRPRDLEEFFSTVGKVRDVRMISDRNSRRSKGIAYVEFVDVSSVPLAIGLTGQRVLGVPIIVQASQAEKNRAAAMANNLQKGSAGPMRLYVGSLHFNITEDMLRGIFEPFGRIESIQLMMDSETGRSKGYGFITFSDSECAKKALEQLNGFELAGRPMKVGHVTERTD

For the molecule `COCCN1Cc2cc(C)c3c(Cl)c[nH]c3c2NS1(=O)=O` [Compound 87, 7-chloro-3-(2-methoxyethyl)-6-methyl-1,3,4,9-tetrahydro-[1,2,6] thiadiazino[4,3-g]indole 2,2-dioxide], the IC50 was found to be 258 nM in assay [1] and 6220 nM in assay [2]. In addition, the EC50 in assay [3] came to 1.8 nM.
